Target: AMPK
Experiment: AMPK activation, enzyme-linked immunosorbent assay
Format: biochemical
Settings: compounds of Table 1 (Table 6)
Method: Compounds of Table 1 were assayed for their ability to activate AMPK using an enzyme-linked immunosorbent assay.
Compounds of Table 2 were assayed for their ability to activate AMPK using an enzyme-linked immunosorbent assay.
Compounds of Table 3 were assayed for their ability to activate AMPK using an enzyme-linked immunosorbent assay.
Compounds of Table 4 were assayed for their ability to activate AMPK using an enzyme-linked immunosorbent assay.
Compounds of Table 5 were assayed for their ability to activate AMPK using an enzyme-linked immunosorbent assay.

Row | SMILES | EC50
1 | Cc1c(C(=O)NC2CCN(Cc3cccnc3)CC2)oc2cc(OC3CCN(c4ccc(C(F)(F)F)cc4)CC3)ccc12 [1-69, 3-methyl-N-(1-(pyridin-3-ylmethyl)piperidin-4-yl)-6-(1-(4-(trifluoromethyl)phenyl)piperidin-4-yloxy)benzofuran-2-carboxamide] | < 0.1 µM
2 | N#Cc1ccc(CN2CCC(Oc3ccc4oc(C(=O)NC5CCN(Cc6ccccc6)CC5)cc4c3)CC2)cc1 [1-70, N-(1-benzylpiperidin-4-yl)-5-(1-(4-cyanobenzyl)piperidin-4-yloxy)benzofuran-2-carboxamide] | < 0.1 µM
3 | N#Cc1ccc(N2CCC(Oc3ccc4oc(C(=O)NC5CCN(Cc6ccccc6)CC5)cc4c3)CC2)cc1 [1-71, N-(1-benzylpiperidin-4-yl)-5-(1-(4-cyanophenyl)piperidin-4-yloxy)benzofuran-2-carboxamide] | < 0.1 µM
4 | O=C(NC1CCN(Cc2ccccc2)CC1)c1cc2cc(OC3CCN(Cc4ccc(Cl)cc4)CC3)ccc2o1 [1-72, N-(1-benzylpiperidin-4-yl)-5-(1-(4-chlorobenzyl)piperidin-4-yloxy)benzofuran-2-carboxamide] | 0.1 to 0.5 µM
5 | O=C(NC1CCN(Cc2ccccc2)CC1)c1cc2cc(OC3CCN(Cc4cccc(C(F)(F)F)c4)CC3)ccc2o1 [1-73, N-(1-benzylpiperidin-4-yl)-5-(1-(3-(trifluoromethyl)benzyl)piperidin-4-yloxy)benzofuran-2-carboxamide] | 0.5 to 1 µM
6 | O=C(NC1CCN(Cc2ccccc2)CC1)c1cc2cc(OC3CCN(Cc4ccc(F)c(F)c4)CC3)ccc2o1 [1-74, N-(1-benzylpiperidin-4-yl)-5-(1-(3,4-difluorobenzyl)piperidin-4-yloxy)benzofuran-2-carboxamide] | 0.1 to 0.5 µM
7 | O=C(NC1CCN(Cc2ccccc2)CC1)c1cc2cc(OC3CCN(c4ccc(C(F)(F)F)cc4)CC3)ccc2o1 [1-75, N-(1-benzylpiperidin-4-yl)-5-(1-(4-(trifluoromethyl)phenyl)piperidin-4-yloxy)benzofuran-2-carboxamide] | < 0.1 µM
8 | O=C(NC1CCN(Cc2ccncc2)CC1)c1cc2cc(OC3CCN(c4ccc(C(F)(F)F)cc4)CC3)ccc2o1 [1-76, N-(1-(pyridin-4-ylmethyl)piperidin-4-yl)-5-(1-(4-(trifluoromethyl)phenyl)piperidin-4-yloxy)benzofuran-2-carboxamide] | 0.1 to 0.5 µM
9 | O=C(NC1CCN(Cc2ccncc2)CC1)c1cc2cc(OC3CCN(Cc4ccc(Cl)cc4)CC3)ccc2o1 [1-77, 5-(1-(4-chlorobenzyl)piperidin-4-yloxy)-N-(1-(pyridin-4-ylmethyl)piperidin-4-yl)benzofuran-2-carboxamide] | 0.1 to 0.5 µM
10 | O=C(NC1CCN(Cc2ccncc2)CC1)c1cc2cc(OC3CCN(c4ccc(OC(F)(F)F)cc4)CC3)ccc2o1 [1-78, N-(1-(pyridin-4-ylmethyl)piperidin-4-yl)-5-(1-(4-(trifluoromethoxy)phenyl)piperidin-4-yloxy)benzofuran-2-carboxamide] | < 0.1 µM
11 | N#Cc1ccc(CN2CCC(Oc3ccc4oc(C(=O)NC5CCN(Cc6ccncc6)CC5)cc4c3)CC2)cc1 [1-79, 5-(1-(4-cyanobenzyl)piperidin-4-yloxy)-N-(1-(pyridin-4-ylmethyl)piperidin-4-yl)benzofuran-2-carboxamide] | 0.1 to 0.5 µM
12 | O=C(NC1CCN(Cc2ccccc2)CC1)c1cc2cc(OC3CCN(c4ccc(OC(F)(F)F)cc4)CC3)ccc2o1 [1-80, N-(1-benzylpiperidin-4-yl)-5-(1-(4-(trifluoromethoxy)phenyl)piperidin-4-yloxy)benzofuran-2-carboxamide] | < 0.1 µM
13 | CC(C)(C)OC(=O)N1CCC(NC(=O)c2cc3ccc(OC4CCN(c5ccc(OC(F)(F)F)cc5)CC4)cc3o2)CC1 [1-81, tert-butyl 4-(6-(1-(4-(trifluoromethoxy)phenyl)piperidin-4-yloxy)benzofuran-2-carboxamido)piperidine-1-carboxylate] | 0.1 to 0.5 µM
14 | CC(C)(C)OC(=O)N1CCC(NC(=O)c2cc3ccc(OC4CCN(c5ccc(C(F)(F)F)cc5)CC4)cc3o2)CC1 [1-82, tert-butyl 4-(6-(1-(4-(trifluoromethyl)phenyl)piperidin-4-yloxy)benzofuran-2-carboxamido)piperidine-1-carboxylate] | 0.1 to 0.5 µM
15 | O=C(NC1CCNCC1)c1cc2ccc(OC3CCN(c4ccc(OC(F)(F)F)cc4)CC3)cc2o1 [1-83, N-(piperidin-4-yl)-6-(1-(4-(trifluoromethoxy)phenyl)piperidin-4-yloxy)benzofuran-2-carboxamide] | 0.1 to 0.5 µM
16 | O=C(NC1CCNCC1)c1cc2ccc(OC3CCN(c4ccc(C(F)(F)F)cc4)CC3)cc2o1 [1-84, N-(piperidin-4-yl)-6-(1-(4-(trifluoromethyl)phenyl)piperidin-4-yloxy)benzofuran-2-carboxamide] | 5 to 10 µM

Second part, the molecule after the results:

Row | EC50 | SMILES
17 | 0.5 to 1 µM | CC(C)(C)OC(=O)N1CCC(NC(=O)c2cc3cc(OC4CCN(c5ccc(C(F)(F)F)cc5)CC4)ccc3o2)CC1 [1-85, tert-butyl 4-(5-(1-(4-(trifluoromethyl)phenyl)piperidin-4-yloxy)benzofuran-2-carboxamido)piperidine-1-carboxylate]
18 | > 10 µM | O=C(NC1CCNCC1)c1cc2cc(OC3CCN(c4ccc(C(F)(F)F)cc4)CC3)ccc2o1 [1-86, N-(piperidin-4-yl)-5-(1-(4-(trifluoromethyl)phenyl)piperidin-4-yloxy)benzofuran-2-carboxamide]
19 | < 0.1 µM | O=C(NC1CCN(Cc2ccncc2)CC1)c1cc2ccc(OC3CCN(c4ccc(C(F)(F)F)cc4)CC3)cc2o1 [1-87, N-(1-(pyridin-4-ylmethyl)piperidin-4-yl)-6-(1-(4-(trifluoromethyl)phenyl)piperidin-4-yloxy)benzofuran-2-carboxamide]
20 | < 0.1 µM | O=C(NC1CCN(Cc2ccncc2)CC1)c1cc2ccc(OC3CCN(c4ccc(OC(F)(F)F)cc4)CC3)cc2o1 [1-88, N-(1-(pyridin-4-ylmethyl)piperidin-4-yl)-6-(1-(4-(trifluoromethoxy)phenyl)piperidin-4-yloxy)benzofuran-2-carboxamide]
21 | < 0.1 µM | N#Cc1ccc(CN2CCC(NC(=O)c3cc4ccc(OC5CCN(c6ccc(OC(F)(F)F)cc6)CC5)cc4o3)CC2)cc1 [1-89, N-(1-(4-cyanobenzyl)piperidin-4-yl)-6-(1-(4-(trifluoromethoxy)phenyl)piperidin-4-yloxy)benzofuran-2-carboxamide]
22 | < 0.1 µM | N#Cc1ccc(CN2CCC(NC(=O)c3cc4ccc(OC5CCN(c6ccc(C(F)(F)F)cc6)CC5)cc4o3)CC2)cc1 [1-90, N-(1-(4-cyanobenzyl)piperidin-4-yl)-6-(1-(4-(trifluoromethyl)phenyl)piperidin-4-yloxy)benzofuran-2-carboxamide]
23 | > 10 µM | O=C(NC1CCN(Cc2ccc(F)cc2)CC1)c1cc2ccc(OC3CCN(c4ccc(C(F)(F)F)cc4)CC3)cc2o1 [1-91, N-(1-(4-fluorobenzyl)piperidin-4-yl)-6-(1-(4-(trifluoromethyl)phenyl)piperidin-4-yloxy)benzofuran-2-carboxamide]
24 | 0.5 to 1 µM | O=C(NC1CCN(Cc2ccccn2)CC1)c1cc2ccc(OC3CCN(c4ccc(OC(F)(F)F)cc4)CC3)cc2o1 [1-92, N-(1-(pyridin-2-ylmethyl)piperidin-4-yl)-6-(1-(4-(trifluoromethoxy)phenyl)piperidin-4-yloxy)benzofuran-2-carboxamide]
25 | 0.1 to 0.5 µM | O=C(NC1CCN(Cc2ccccn2)CC1)c1cc2ccc(OC3CCN(c4ccc(C(F)(F)F)cc4)CC3)cc2o1 [1-93, N-(1-(pyridin-2-ylmethyl)piperidin-4-yl)-6-(1-(4-(trifluoromethyl)phenyl)piperidin-4-yloxy)benzofuran-2-carboxamide]
26 | < 0.1 µM | O=C(NC1CCN(Cc2ccc(F)cc2)CC1)c1cc2ccc(OC3CCN(c4ccc(OC(F)(F)F)cc4)CC3)cc2o1 [1-94, N-(1-(4-fluorobenzyl)piperidin-4-yl)-6-(1-(4-(trifluoromethoxy)phenyl)piperidin-4-yloxy)benzofuran-2-carboxamide]
27 | < 0.1 µM | O=C(NC1CCN(Cc2cccnc2)CC1)c1cc2ccc(OC3CCN(c4ccc(OC(F)(F)F)cc4)CC3)cc2o1 [1-95, N-(1-(pyridin-3-ylmethyl)piperidin-4-yl)-6-(1-(4-(trifluoromethoxy)phenyl)piperidin-4-yloxy)benzofuran-2-carboxamide]
28 | < 0.1 µM | O=C(NC1CCN(Cc2cccnc2)CC1)c1cc2ccc(OC3CCN(c4ccc(C(F)(F)F)cc4)CC3)cc2o1 [1-96, N-(1-(pyridin-3-ylmethyl)piperidin-4-yl)-6-(1-(4-(trifluoromethyl)phenyl)piperidin-4-yloxy)benzofuran-2-carboxamide]
29 | < 0.1 µM | N#Cc1ccccc1CN1CCC(NC(=O)c2cc3ccc(OC4CCN(c5ccc(OC(F)(F)F)cc5)CC4)cc3o2)CC1 [1-97, N-(1-(2-cyanobenzyl)piperidin-4-yl)-6-(1-(4-(trifluoromethoxy)phenyl)piperidin-4-yloxy)benzofuran-2-carboxamide]
30 | < 0.1 µM | N#Cc1ccccc1CN1CCC(NC(=O)c2cc3ccc(OC4CCN(c5ccc(C(F)(F)F)cc5)CC4)cc3o2)CC1 [1-98, N-(1-(2-cyanobenzyl)piperidin-4-yl)-6-(1-(4-(trifluoromethyl)phenyl)piperidin-4-yloxy)benzofuran-2-carboxamide]
31 | < 0.1 µM | O=C(NC1CCN(Cc2ccc(C(F)(F)F)cc2)CC1)c1cc2ccc(OC3CCN(c4ccc(C(F)(F)F)cc4)CC3)cc2o1 [1-99, N-(1-(4-(trifluoromethyl)benzyl)piperidin-4-yl)-6-(1-(4-(trifluoromethyl)phenyl)piperidin-4-yloxy)benzofuran-2-carboxamide]
32 | < 0.1 µM | O=C(NC1CCN(Cc2ccc(C(F)(F)F)cc2)CC1)c1cc2cc(OC3CCN(c4ccc(C(F)(F)F)cc4)CC3)ccc2o1 [1-100, N-(1-(4-(trifluoromethyl)benzyl)piperidin-4-yl)-5-(1-(4-(trifluoromethyl)phenyl)piperidin-4-yloxy)benzofuran-2-carboxamide]
